Values of other authors as cited in patent US10342816B2, “Aqueous ophthalmic formulations based on azithromycin” (MEDIVIS S.R.L., priority 2013, dated 2019).

Legend:
[1] = aqueous solution, phosphate buffer, low ionic strength
[2] = pharmacopoeia

## CC[C@H]1OC(=O)[C@H](C)[C@@H](O[C@H]2CC(C)(OC)[C@@H](O)C(C)O2)[C@H](C)[C@@H](O[C@@H]2OC(C)CC(N(C)C)C2O)[C@](C)(O)C[C@@H](C)CN(C)[C@H](C)[C@@H](O)[C@]1(C)O (some centres unmarked) [azithromycin]
[1]
  pH at which the kinetics of the hydrolytic phenomenon has the minimum value: 6.3
[2]
  solubility in water: poorly soluble in water
